Data: US11912679B2, “Aryl alkynamide derivatives” (Astellas Pharma, Inc., priority 2022, dated 2024)

Test system: IRF pathway of THP-1
Test: Test on the activity of IRF pathway of THP-1 (THP1-Dual reporter cells stimulated with 2'3'-cGAMP)
Assay type: cell-based
Conditions: Homo sapiens, PMA-treated, 2'3'-cGAMP 5 ug/mL, QUANTI-Luc readout, read-out: IC50 of inhibition of the activity of IRF pathway
Method: 0.3 uM of PMA (phorbol myristate acetate, SIGMA, P1585) was added to THP1-Dual™ cells (NF-κB-SEAP IRF-Luc Reporter Monocytes, Invivogen, thpd-nfis), and the cells were cultured at 37° C. for 1 day in RPMI1640 with 10% Fetal Bovine Serum (FBS). A compound with a known concentration was added, and the cells were incubated at room temperature for 1 hour. Mammalian (non-canonical) CDN, cyclic [G(2′,5′)pA(3′,5′)p] (2′3′-cGAMP, Invivogen, tlrl-nacga23) was added to a final concentration of 5 ug/mL, and the cells were cultured at 37° C. On the following day, QUANTI-Luc™ (Secreted luciferase detection medium, Invivogen, rep-qlc) was added to the culture solution and the activity of IRF pathway was measured using a microplate reader. The inhibition ratio at each concentration was determined, where the activity of IRF pathway with no addition of the test compound or 2′3′-cGAMP was defined as 100% inhibition and the activity of IRF pathway with no addition of the test compound and with addition of 2′3′-cGAMP was defined as 0% inhibition. The IC50 value was calculated by sigmoid […] model non-linear regression analysis.

Row | Structure (SMILES) | IC50
1 | O=C(C#Cc1ccc(-c2ccccc2)c(C(F)(F)F)c1)N1CCS(=O)(=O)CC1CO (racemic) [Example 128, rac-(3R)-3-(hydroxymethyl)-4-{3-[2-(trifluoromethyl)[1,1′-biphenyl]-4-yl]prop-2-ynoyl}-1λ^6-thiomorpholine-1,1-dione] | 70 nM
2 | CN1CCN(C(=O)C#Cc2ccccc2-c2ccccc2)CC1 [Example 1, 3-([1,1′-biphenyl]-2-yl)-1-(4-methylpiperazin-1-yl)prop-2-yn-1-one] | 13400 nM
3 | CN1CCN(C(=O)C#Cc2cccc(-c3ccccc3)c2)CC1 [Example 2] | 1090 nM
4 | CN1CCN(C(=O)C#Cc2ccc(-c3ccccc3)c(C(F)(F)F)c2)CC1 [Example 3] | 155 nM
5 | CN1CCN(C(=O)C#Cc2ccc(-c3ccccc3)cn2)CC1 [Example 4] | 236 nM
6 | CN1CCN(C(=O)C#Cc2ccc(-c3ccccc3)nc2)CC1 [Example 5] | 950 nM
7 | CN1CCN(C(=O)C#Cc2cnn(-c3ccccc3)c2C(F)(F)F)CC1 [Example 6] | 4820 nM
8 | CN1CCN(C(=O)C#Cc2cn(-c3ccccc3)nc2C(F)(F)F)CC1 [Example 7] | 2060 nM
9 | CN1CCN(C(=O)C#Cc2ccc(-n3cccn3)cc2)CC1 [Example 8] | 7750 nM
10 | O=C(C#Cc1ccc(-c2ccccc2)c(C(F)(F)F)c1)N[C@@H]1CCNC1=O [Example 11] | 146 nM
11 | O=C(C#Cc1ccc(-c2ccccc2)c(C(F)(F)F)c1)N[C@H]1CCNC1=O [Example 12] | 385 nM
12 | O=C(C#Cc1ccc(-c2ccccc2)c(C(F)(F)F)c1)N1CCN(C2CC2)CC1 [Example 13] | 1540 nM
13 | O=C(C#Cc1ccc(-c2ccccc2)c(C(F)(F)F)c1)N1CCN(C2COC2)CC1 [Example 14] | 374 nM
14 | CC(C)N1CCN(C(=O)C#Cc2ccc(-c3ccccc3)c(C(F)(F)F)c2)CC1 [Example 15] | 237 nM
15 | O=C(C#Cc1ccc(-c2ccccc2)c(C(F)(F)F)c1)N1CCN(C2CCS(=O)(=O)C2)CC1 (stereo not shown) [Example 16] | 229 nM
16 | CN1CCN(C(=O)C#Cc2ccc(-c3ccccc3)cc2)CC1 [Example 19] | 1390 nM
17 | O=C(C#Cc1ccc(-c2ccccc2)c(C(F)(F)F)c1)N1CCOCC1 [Example 21] | 295 nM
18 | NC(=O)[C@H]1CCCN1C(=O)C#Cc1ccc(-c2ccccc2)c(C(F)(F)F)c1 [Example 23] | 91 nM

Row | Structure (SMILES) | IC50
19 | NC(=O)[C@@H]1CCCN1C(=O)C#Cc1ccc(-c2ccccc2)c(C(F)(F)F)c1 [Example 24] | 121 nM
20 | O=C(C#Cc1ccc(-c2ccccc2)c(C(F)(F)F)c1)N1CCC(O)(CO)CC1 [Example 26] | 299 nM
21 | CN(CC(N)=O)C(=O)C#Cc1ccc(-c2ccccc2)c(C(F)(F)F)c1 [Example 29] | 153 nM
22 | NS(=O)(=O)CCNC(=O)C#Cc1ccc(-c2ccccc2)c(C(F)(F)F)c1 [Example 30] | 159 nM
23 | CS(=O)(=O)NCCNC(=O)C#Cc1ccc(-c2ccccc2)c(C(F)(F)F)c1 [Example 31] | 115 nM
24 | CS(=O)(=O)NCCCNC(=O)C#Cc1ccc(-c2ccccc2)c(C(F)(F)F)c1 [Example 32] | 178 nM
25 | NC(=O)N1CCN(C(=O)C#Cc2ccc(-c3ccccc3)c(C(F)(F)F)c2)CC1 [Example 37] | 195 nM
26 | O=C(C#Cc1ccc(-c2ccccc2)c(C(F)(F)F)c1)N1CCS(=O)(=O)CC1 [Example 38] | 88 nM
27 | O=C(C#Cc1ccc(-c2ccccc2)c(C(F)(F)F)c1)NC(CO)CO [Example 39] | 351 nM
28 | NC(=O)[C@H](CO)NC(=O)C#Cc1ccc(-c2ccccc2)c(C(F)(F)F)c1 [Example 45, N^2-{3-[2-(trifluoromethyl)[1,1′-biphenyl]-4-yl]prop-2-ynoyl}-L-serinamide] | 89 nM
29 | O=C(C#Cc1ccc(-c2ccccc2)c(C(F)(F)F)c1)N(CCO)c1ccccc1 [Example 48] | 91 nM
30 | NC(=O)CNC(=O)C#Cc1ccc(-c2ccccc2)c(C(F)(F)F)c1 [Example 49] | 231 nM
31 | NS(=O)(=O)c1cccc(NC(=O)C#Cc2ccc(-c3ccccc3)c(C(F)(F)F)c2)c1 [Example 50] | 48 nM
32 | O=C(C#Cc1ccc(-c2ccccc2)c(C(F)(F)F)c1)N(CCO)C1CCOCC1 [Example 51] | 184 nM
33 | O=C(C#Cc1ccc(-c2ccccc2)c(C(F)(F)F)c1)N(CCO)C1CC1 [Example 52] | 442 nM
34 | CC(C)N(CCO)C(=O)C#Cc1ccc(-c2ccccc2)c(C(F)(F)F)c1 [Example 53] | 550 nM
35 | COc1ccc(N(CCO)C(=O)C#Cc2ccc(-c3ccccc3)c(C(F)(F)F)c2)cn1 [Example 54] | 66 nM
36 | Cn1cc(N(CCO)C(=O)C#Cc2ccc(-c3ccccc3)c(C(F)(F)F)c2)cn1 [Example 55] | 83 nM

Next, values leading:

Row | IC50 | Structure (SMILES)
37 | 116 nM | O=C(C#Cc1ccc(-c2ccccc2)c(C(F)(F)F)c1)N1CC(O)(CO)C1 [Example 9]
38 | 182 nM | O=C(C#Cc1ccc(-c2ccccc2)c(C(F)(F)F)c1)N[C@H]1COC[C@@H]1O [Example 10]
39 | 233 nM | O=C(C#Cc1ccc(-c2ccccc2)c(C(F)(F)F)c1)N[C@@H]1COC[C@H]1O [Example 17]
40 | 1410 nM | O=C(C#Cc1ccc(C2=CCOCC2)c(C(F)(F)F)c1)N1C[C@@H](O)[C@@H](O)C1 [Example 18]
41 | 244 nM | NC(=O)[C@@H]1CCN(C(=O)C#Cc2ccc(-c3ccccc3)c(C(F)(F)F)c2)C1 [Example 20, (3R)-1-{3-[2-(trifluoromethyl)[1,1′-biphenyl]-4-yl]prop-2-ynoyl}pyrrolidine-3-carboxamide]
42 | 210 nM | O=C(C#Cc1ccc(-c2ccccc2)c(C(F)(F)F)c1)N1CCSCC1 [Example 22]
43 | 158 nM | NC(=O)[C@@H]1[C@@H](O)CCN1C(=O)C#Cc1ccc(-c2ccccc2)c(C(F)(F)F)c1 [Example 25]
44 | 216 nM | NC(=O)[C@H]1CCN(C(=O)C#Cc2ccc(-c3ccccc3)c(C(F)(F)F)c2)C1 [Example 27]
45 | 95 nM | NC(=O)[C@@H]1C[C@H](O)CN1C(=O)C#Cc1ccc(-c2ccccc2)c(C(F)(F)F)c1 [Example 28]
46 | 422 nM | O=C(C#Cc1ccc(-c2ccc(OC(F)(F)F)cc2)c(C(F)(F)F)c1)NC[C@@H](O)CO [Example 40]
47 | 792 nM | O=C(C#Cc1ccc(-c2ccc(OC(F)(F)F)cc2)c(C(F)(F)F)c1)NC[C@H](O)CO [Example 41]
48 | 158 nM | O=C(C#Cc1ccc(-c2ccccc2)c(C(F)(F)F)c1)N1CC(O)C1 [Example 42]
49 | 277 nM | O=C(C#Cc1cnc(-c2ccccc2)c(C(F)(F)F)c1)N1C[C@@H](O)[C@@H](O)C1 [Example 47, 1-[(3R,4S)-3,4-dihydroxypyrrolidin-1-yl]-3-[6-phenyl-5-(trifluoromethyl)pyridin-3-yl]prop-2-yn-1-one]
50 | 256 nM | O=C(C#Cc1ccc(-c2cccc(OC(F)F)c2)c(C(F)(F)F)c1)N1C[C@H](O)[C@@H](O)C1 [Example 56]
51 | 381 nM | O=C(C#Cc1ccc(-c2cccc(OC(F)F)c2)c(C(F)(F)F)c1)N[C@H]1COC[C@@H]1O [Example 57]
52 | 441 nM | O=C(C#Cc1ccc(-c2cccc(OC(F)F)c2)c(C(F)(F)F)c1)N[C@@H]1COC[C@H]1O [Example 58]
53 | 444 nM | O=C(C#Cc1ccc(-c2ccccc2)c(C(F)(F)F)c1)N[C@@H]1COC[C@@H]1O [Example 59]
54 | 528 nM | O=C(C#Cc1ccc(-c2ccccc2)c(C(F)(F)F)c1)N[C@H]1COC[C@H]1O [Example 60]
55 | 611 nM | O=C(C#Cc1ccc(-c2ccc(OC(F)F)cc2)c(C(F)(F)F)c1)N1C[C@@H](O)[C@H](O)C1 [Example 61]
